{
  "source": "patent US8952014B2",
  "about": "“Pyrimidine derivatives which are CGRP—antagonists” (Boehringer Ingelheim International GmbH, priority 2008, dated 2015)",
  "target": "T1, human CGRP receptor (Homo sapiens, UniProt O60894+Q16602)",
  "T1 construct": "SK-N-MC membranes (˜20 μg protein) are incubated for 180 minutes at ambient temperature; endogenous in cells; host or cells: SK-N-MC cells (membranes)",
  "T1 sequence (Q16602 23-461)": "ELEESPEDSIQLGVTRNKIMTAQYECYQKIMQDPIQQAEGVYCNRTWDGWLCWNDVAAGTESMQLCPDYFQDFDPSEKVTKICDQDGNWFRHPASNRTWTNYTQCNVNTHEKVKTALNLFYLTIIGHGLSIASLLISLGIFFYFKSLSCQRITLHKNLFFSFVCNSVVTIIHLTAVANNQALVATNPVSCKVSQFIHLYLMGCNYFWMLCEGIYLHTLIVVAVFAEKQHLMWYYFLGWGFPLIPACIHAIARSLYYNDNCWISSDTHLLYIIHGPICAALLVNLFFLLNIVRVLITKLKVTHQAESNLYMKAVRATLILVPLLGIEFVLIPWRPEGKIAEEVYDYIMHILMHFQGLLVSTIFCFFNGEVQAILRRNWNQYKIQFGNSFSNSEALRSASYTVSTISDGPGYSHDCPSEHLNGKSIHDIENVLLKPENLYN",
  "T1 sequence (O60894 27-148)": "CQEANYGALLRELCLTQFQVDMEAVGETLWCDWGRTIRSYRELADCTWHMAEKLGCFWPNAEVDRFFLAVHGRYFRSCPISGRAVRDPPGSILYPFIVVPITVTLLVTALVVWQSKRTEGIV",
  "experiment": "Binding studies with SK-N-MC cells (125I-CGRP displacement from membranes)",
  "settings": "50 pM 125I-iodotyrosyl-CGRP, 180 min, ambient temperature",
  "description": "A. Binding Studies with SK-N-MC Cells (Expressing the Human CGRP Receptor)\nSK-N-MC membranes (˜20 μg protein) are incubated for 180 minutes at ambient temperature with 50 pM ^125I-iodotyrosyl-Calcitonin-Gene-Related Peptide and increasing concentrations of the test substances in a total volume of 250 μl (assay buffer: 10 mM tris, 50 mM NaCl, 5 mM MgCl2, 1 mM EDTA, pH=7.4). The incubation is ended by rapid filtration through GF/B-glass fibre filters treated with polyethyleneimine (0.1%) using a cell harvester. The protein-bound radioactivity is measured using a gamma counter. Non-specific binding is defined as the bound radioactivity after the presence of 1 μM BIBN4096BS during incubation.\nThe concentration binding curves are analysed using computer-aided non-linear curve fitting.",
  "data": [
    {"compound": "COc1ccc2c(c1)CCN(C1CCN(c3cc(Oc4cc(C)c5[nH]c(=O)oc5c4)nc(OC)n3)CC1)C(=O)N2", "note": "[(40)]", "values": [
      {"measurement": "Ki", "result": 8, "unit": "nM"}
    ]},
    {"compound": "COc1ccc2c(c1)CCN(C1CCN(c3cc(Nc4cc(C)c5[nH]c(C)nc5c4)ncn3)CC1)C(=O)N2", "note": "[(8)]", "values": [
      {"measurement": "Ki", "result": 12, "unit": "nM"}
    ]},
    {"compound": "COc1ccc2c(c1)CCN(C1CCN(c3cc(Oc4cc(C)c5[nH]c(=O)oc5c4)nc(C)n3)CC1)C(=O)N2", "note": "[(22)]", "values": [
      {"measurement": "Ki", "result": 5, "unit": "nM"}
    ]},
    {"compound": "Cc1nc2cc(Oc3cc(N4CCC5(CC4)OC(=O)Nc4ncccc45)ncn3)cc(Cl)c2[nH]1", "note": "[(51)]", "values": [
      {"measurement": "Ki", "result": 3, "unit": "nM"}
    ]},
    {"compound": "COCc1nc2c(C)cc(Oc3cc(N4CCC(N5CCc6cc(OC)ccc6NC5=O)CC4)ncn3)cc2[nH]1", "note": "[(38)]", "values": [
      {"measurement": "Ki", "result": 10, "unit": "nM"}
    ]},
    {"compound": "COc1ccc2c(c1)CCN(C1CCN(c3cc(Oc4cc(C)c5c(c4)OCC(=O)N5)ncn3)CC1)C(=O)N2", "note": "[(57)]", "values": [
      {"measurement": "Ki", "result": 35, "unit": "nM"}
    ]}
  ]
}
